{
  "source": "patent US20030071268A1",
  "about": "“Optical data storage medium containing a diaza hemicyanine dye as the light-absorbing compound in the information layer” (priority 2001, published 2003)",
  "format_in_all_cases": "physicochemical",
  "key": {"[1]": {"test": "absorption spectra measured in solution", "method": "(§1) For a recordable optical data storage medium according to the invention which is recorded on and read using light from a blue laser, such diaza hemicyanine dyes are preferred whose absorption maximum λmax2 is in the range from 420 to 550 nm, wherein the wavelength λ½ at which the extinction on the short-wavelength slope of the absorption maximum of the wavelength λmax2 is half the extinction value at λmax2, and the wavelength λ 1/10, at which the extinction on the short-wavelength slope of the absorption maximum of the wavelength λmax2 is a tenth of the extinction value at λmax2, are preferably in each case no further than 50 nm away from each other.\nas §1, with “a red” for “a blue”, “from 500” for “from 420”, “to 650” for “to 550”, “the long-wavelength” for “the short-wavelength”, “50 mn” for “50 nm”, “other. […]” for “other.”\nThe absorption spectra are, for example, measured in solution."}, "[2]": {"test": "solubility in TFP (2,2,3,3-tetrafluoropropanol)"}, "film appearance": {"test": "film appearance", "description": "In addition to the above-mentioned optical properties, the recordable information layer consisting of light-absorbing organic substances must have a morphology which is as amorphous as possible, in order to keep the noise signal during recording or reading as small as possible. For this purpose it is particularly preferable, when applying the substances by spin-coating from a solution or by vapour deposition and/or sublimation, to prevent crystallization of the light-absorbing substances during the subsequent top-coating with metallic or dielectric layers in vacuo."}},
  "data": [
    {"smiles": "CC(C)N(c1n[n+](C)c(/N=N/c2sc(N3CCOCC3)nc2-c2ccccc2)s1)C(C)C", "note": "[Example 1]", "values": [
      {"measurement": "ε", "setting": "[1]; Example 1", "result": 30100, "unit": "mol⁻¹ cm⁻¹"},
      {"measurement": "λmax", "setting": "[1]; in methanol", "result": 592, "unit": "nm"},
      {"measurement": "Solubility", "setting": "[2]", "result": "> 2", "unit": "%"},
      {"measurement": "film appearance", "setting": "film appearance", "result": "a glassy film"}
    ]}
  ]
}
